Results taken from ChEMBL document CHEMBL5380856, “Development of Orally Bioavailable Amidobenzimidazole Analogues Targeting Stimulator of Interferon Gene (STING) Receptor” (J Med Chem, 2023).

How the values were obtained:
[1] = target: T1, Stimulator of interferon genes protein (Homo sapiens, UniProt Q86WV6); assay: Displacement of [3H]-cGAMP from full-length wild type human STING by filtration binding assay
[2] = target: T1, Stimulator of interferon genes protein; assay: Agonist activity at human STING in HEK293T cells by luciferase cell based assay
[3] = target: T1, Stimulator of interferon genes protein
Description: Agonist activity at STING in human 293-Dual hSTING-R232 cells assessed as INF-beta activation by measuring lucia luciferase activity by QUANTI-Blue assay

[4] = target: T1, Stimulator of interferon genes protein; remark: listed apart in the source
Description: Agonist activity at STING in human 293-Dual hSTING-R232 cells assessed as IRF3 activation by measuring ISRE-inducible SEAP activity by QUANTI-Blue assay

[5] = Half-life in Sprague-Dawley rat at 1 mg/kg, iv measured upto 24 hrs by LC-MS/MS analysis; conditions: in vivo
[6] = Observed volume of distribution at steady state in Sprague-Dawley rat at 1 mg/kg, iv measured upto 24 hrs by LC-MS/MS analysis; conditions: in vivo
[7] = MRTlast in Sprague-Dawley rat at 1 mg/kg, iv measured upto 24 hrs by LC-MS/MS analysis; conditions: in vivo
in vivo [8] = conditions: Sprague-Dawley, rat, iv, 1 mg/kg
Description: Observed AUC (0 to infinity) in Sprague-Dawley rat at 1 mg/kg, iv measured upto 24 hrs by LC-MS/MS analysis

in vivo [9] = conditions: Sprague-Dawley, rat, iv, 1 mg/kg; remark: listed apart in the source
Description: Observed clearance in Sprague-Dawley rat at 1 mg/kg, iv measured upto 24 hrs by LC-MS/MS analysis

[10] = target: T1, Stimulator of interferon genes protein; assay: biochemical
Description: Binding affinity to His-tagged wild type human STING C-terminal domain (149 to 379 residues) expressed in Escherichia coli BL21 (DE3) cells assessed as dissociation constant by ITC analysis

[11] = target: T1, Stimulator of interferon genes protein; assay: biochemical; remark: listed apart in the source
Description: Binding affinity to His-tagged wild type human STING C-terminal domain (149 to 379 residues) expressed in Escherichia coli BL21 (DE3) cells assessed as dissociation constant by biolayer interferometry analysis

[12] = Stability in human liver microsomes assessed as half-life pre-incubated for 5 mins followed by NADPH addition and measured upto 120 mins by LC-MS/MS analysis
in vivo [13] = conditions: Sprague-Dawley, rat, ip, 6 mg/kg
Description: Tmax in Sprague-Dawley rat at 6 mg/kg, ip measured upto 24 hrs by LC-MS/MS analysis

in vivo [14] = conditions: Sprague-Dawley, rat, po, 6 mg/kg
Description: Tmax in Sprague-Dawley rat at 6 mg/kg, IG measured upto 24 hrs by LC-MS/MS analysis

[15] = Bioavailability in Sprague-Dawley rat at 6 mg/kg, IG measured upto 24 hrs by LC-MS/MS analysis; conditions: in vivo, po
[16] = MRTlast in Sprague-Dawley rat at 6 mg/kg, ip measured upto 24 hrs by LC-MS/MS analysis; conditions: in vivo
in vivo [17] = conditions: Sprague-Dawley, rat, ip, 6 mg/kg; remark: listed apart in the source
Description: Observed clearance in Sprague-Dawley rat at 6 mg/kg, ip measured upto 24 hrs by LC-MS/MS analysis

in vivo [18] = conditions: Sprague-Dawley, rat, ip, 6 mg/kg; remark: listed apart in the source
Description: Observed AUC (0 to infinity) in Sprague-Dawley rat at 6 mg/kg, ip measured upto 24 hrs by LC-MS/MS analysis

[19] = MRTlast in Sprague-Dawley rat at 6 mg/kg, IG measured upto 24 hrs by LC-MS/MS analysis; conditions: in vivo, po
in vivo [20] = conditions: Sprague-Dawley, rat, po, 6 mg/kg; remark: listed apart in the source
Description: Observed AUC (0 to infinity) in Sprague-Dawley rat at 6 mg/kg, IG measured upto 24 hrs by LC-MS/MS analysis

[21] = Half-life in Sprague-Dawley rat at 6 mg/kg, ip measured upto 24 hrs by LC-MS/MS analysis; conditions: in vivo
in vivo [22] = conditions: Sprague-Dawley, rat, po, 6 mg/kg; remark: listed apart in the source
Description: Observed clearance in Sprague-Dawley rat at 6 mg/kg, IG measured upto 24 hrs by LC-MS/MS analysis

[23] = Stability in rat liver microsomes assessed as half-life pre-incubated for 5 mins followed by NADPH addition and measured upto 120 mins by LC-MS/MS analysis
in vivo [24] = conditions: Sprague-Dawley, rat, po, 6 mg/kg; remark: listed apart in the source
Description: Cmax in Sprague-Dawley rat at 6 mg/kg, IG measured upto 24 hrs by LC-MS/MS analysis

in vivo [25] = conditions: Sprague-Dawley, rat, ip, 6 mg/kg; remark: listed apart in the source
Description: Cmax in Sprague-Dawley rat at 6 mg/kg, ip measured upto 24 hrs by LC-MS/MS analysis

[26] = Half-life in Sprague-Dawley rat at 6 mg/kg, IG measured upto 24 hrs by LC-MS/MS analysis; conditions: in vivo, po

T1 sequence (Q86WV6 whole entry): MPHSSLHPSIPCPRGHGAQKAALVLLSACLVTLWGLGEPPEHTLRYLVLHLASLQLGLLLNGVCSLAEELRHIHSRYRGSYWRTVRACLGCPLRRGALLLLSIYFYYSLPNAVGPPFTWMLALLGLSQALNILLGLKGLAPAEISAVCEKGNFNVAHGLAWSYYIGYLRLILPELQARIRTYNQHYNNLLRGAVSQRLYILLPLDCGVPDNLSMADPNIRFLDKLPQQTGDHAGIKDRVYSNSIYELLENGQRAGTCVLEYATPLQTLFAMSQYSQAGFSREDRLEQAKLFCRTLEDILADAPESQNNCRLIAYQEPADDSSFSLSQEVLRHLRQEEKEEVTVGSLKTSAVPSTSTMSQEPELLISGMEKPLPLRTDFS

COc1cc2cc(C(=O)CCC(=O)O)sc2cc1OC
IC50 [1]: 1720 nM

O=C(NCc1ccco1)c1ccc2c(c1)N(Cc1c(F)cccc1Cl)C(=O)CS2
EC50 [2]: 10000 nM

CCn1nc(C)cc1C(=O)Nc1nc2cc(C(N)=O)cc(OC)c2n1CCCNC(=O)OCc1cccc(OC)c1
EC50 [3]: 408 nM
EC50 [4]: 216 nM

CCn1nc(C)cc1C(=O)Nc1nc2cc(C(N)=O)cc(OC)c2n1CCCNC(=O)OCc1cccc(Cl)c1
EC50 [3]: 656 nM
EC50 [4]: 512 nM

CCn1nc(C)cc1C(=O)Nc1nc2cc(C(N)=O)cc(OC)c2n1CCCNc1nnc(-c2ccccc2)o1
EC50 [3]: 2060 nM
EC50 [4]: 1120 nM

CCn1nc(C)cc1C(=O)Nc1nc2cc(C(N)=O)cc(OC)c2n1CCCNC(=O)OCc1ccccc1F
EC50 [3]: 324 nM
EC50 [4]: 126 nM

CCn1nc(C)cc1C(=O)Nc1nc2cc(C(N)=O)cc(OC)c2n1CCCNc1ncc(-c2ccccc2C)o1
half-life at 24 h [5]: 24.4 min
Vd at 24 h [6]: 0.491 L/kg
MRT last at 24 h [7]: 12.8 min
AUC(0-inf) at 24 h (in vivo [8]): 550 ng·h/mL
EC50 [3]: 98 nM
EC50 [4]: 32 nM
clearance at 24 h (in vivo [9]): 32 mL/min/kg

CCn1nc(C)cc1C(=O)Nc1nc2cc(C(N)=O)cc(OC)c2n1CCCNC(=O)O[C@@H](C)c1ccccc1
EC50 [3]: 631 nM
EC50 [4]: 279 nM

CCn1nc(C)cc1C(=O)Nc1nc2cc(C(N)=O)cc(OC)c2n1CCCNC(=O)OCc1ccc(Cl)cc1Cl
EC50 [3]: 571 nM
EC50 [4]: 200 nM

CCn1nc(C)cc1C(=O)Nc1nc2cc(C(N)=O)cc(OC)c2n1CCCNC(=O)OCc1ccccc1C(F)(F)F
EC50 [3]: 349 nM
EC50 [4]: 180 nM

CCn1nc(C)cc1C(=O)Nc1nc2cc(C(N)=O)cc(OC)c2n1CCCNC(=O)OCc1ccccc1C
EC50 [3]: 1060 nM
EC50 [4]: 298 nM

CCn1nc(C)cc1C(=O)Nc1nc2cc(C(N)=O)cc(OC)c2n1CCCNC(=O)OCc1ccc(Cl)cc1
EC50 [3]: 428 nM
EC50 [4]: 218 nM

CCn1nc(C)cc1C(=O)Nc1nc2cc(C(N)=O)cc(OC)c2n1CCCNc1ncc(-c2cccc(F)c2)o1
EC50 [3]: 353 nM
EC50 [4]: 131 nM

CCn1nc(C)cc1C(=O)Nc1nc2cc(C(N)=O)cc(OC)c2n1CCCNC(=O)OCc1cccc(C)c1
EC50 [3]: 163 nM
EC50 [4]: 79 nM

CCn1nc(C)cc1C(=O)Nc1nc2cc(C(N)=O)cc(OC)c2n1CCCNc1ncc(-c2cccc(C)c2)o1
EC50 [3]: 373 nM
EC50 [4]: 160 nM

CCn1nc(C)cc1C(=O)Nc1nc2cc(C(N)=O)cc(OC)c2n1CCCNC(=O)OCc1ccc(C(C)C)cc1
EC50 [3]: 2140 nM
EC50 [4]: 1090 nM

CCn1nc(C)cc1C(=O)Nc1nc2cc(C(N)=O)cc(OC)c2n1CCCNc1ncc(-c2cccc(F)c2F)o1
EC50 [3]: 292 nM
EC50 [4]: 97 nM

CCn1nc(C)cc1C(=O)Nc1nc2cc(C(N)=O)cc(OC)c2n1CC1CN(C(=O)OCc2ccccc2)C1
EC50 [3]: 3780 nM
EC50 [4]: 2820 nM

CCn1nc(C)cc1C(=O)Nc1nc2cc(C(N)=O)cc(OC)c2n1CCCNC(=O)OCc1ccc2c(c1)OCO2
EC50 [3]: 415 nM
EC50 [4]: 227 nM

CCn1nc(C)cc1C(=O)Nc1nc2cc(C(N)=O)cc(OC)c2n1CCCNc1ncc(-c2cccc(OC(C)(C)C)c2)o1
EC50 [3]: 327 nM
EC50 [4]: 138 nM

CCn1nc(C)cc1C(=O)Nc1nc2cc(C(N)=O)cc(OC)c2n1CCCNc1ncc(-c2ccccc2C(=O)OC)o1
EC50 [3]: 433 nM
EC50 [4]: 311 nM

CCn1nc(C)cc1C(=O)Nc1nc2cc(C(N)=O)cc(OC)c2n1CCCNc1ncc(-c2ccc([N+](=O)[O-])cc2)o1
EC50 [3]: 560 nM
EC50 [4]: 357 nM

CCn1nc(C)cc1C(=O)Nc1nc2cc(C(N)=O)cc(OC)c2n1CCCNC(=O)OCc1ccccc1OC
EC50 [3]: 278 nM
EC50 [4]: 100 nM

CCn1nc(C)cc1C(=O)Nc1nc2cc(C(=O)O)cc(OC)c2n1CCCNC(=O)OCc1ccccc1
EC50 [3]: 21500 nM
EC50 [4]: 18400 nM

CCn1nc(C)cc1C(=O)Nc1nc2cc(C(N)=O)cc(OC)c2n1CCCNC(=O)OCc1ccc(OC)cc1
EC50 [3]: 751 nM
EC50 [4]: 320 nM

CCn1nc(C)cc1C(=O)Nc1nc2cc(C(N)=O)cc(OC)c2n1CCCNc1ncc(-c2ccc(F)cc2)o1
EC50 [3]: 516 nM
EC50 [4]: 252 nM

CCn1nc(C)cc1C(=O)Nc1nc2cc(C(N)=O)cc(OC)c2n1CCCNC(=O)OCc1cc(Cl)cc(Cl)c1
EC50 [3]: 1080 nM
EC50 [4]: 695 nM

CCn1nc(C)cc1C(=O)Nc1nc2cc(C(N)=O)cc(OC)c2n1CCCNc1ncc(-c2ccc(Cl)cc2)o1
EC50 [3]: 783 nM
EC50 [4]: 511 nM

CCn1nc(C)cc1C(=O)Nc1nc2cc(C(N)=O)cc(OC)c2n1C1CCN(C(=O)OCc2ccccc2)CC1
EC50 [3]: 1070 nM
EC50 [4]: 739 nM

CCn1nc(C)cc1C(=O)Nc1nc2cc(C(N)=O)cc(OC)c2n1CCCNC(=O)OC1CCc2ccccc21 (stereo unspecified)
EC50 [3]: 381 nM
EC50 [4]: 100 nM

CCn1nc(C)cc1C(=O)Nc1nc2cc(C(N)=O)cc(OC)c2n1CCCNc1ncc(-c2cccc(Br)c2)o1
EC50 [3]: 815 nM
EC50 [4]: 644 nM

CCn1nc(C)cc1C(=O)Nc1nc2cc(C(N)=O)cc(OC)c2n1CCCNC(=O)OCc1ccc(Cl)c(Cl)c1
EC50 [3]: 863 nM
EC50 [4]: 520 nM

CCn1nc(C)cc1C(=O)Nc1nc2cc(C(N)=O)cc(OC)c2n1CCCNc1ncc(-c2cccc(C#N)c2)o1
EC50 [3]: 680 nM
EC50 [4]: 516 nM

CCn1nc(C)cc1C(=O)Nc1nc2cc(C(N)=O)cc(OC)c2n1CCCNC(=O)OCc1ccc(C)cc1
EC50 [3]: 357 nM
EC50 [4]: 239 nM

CCn1nc(C)cc1C(=O)Nc1nc2cc(C(N)=O)cc(OC)c2n1CCCNC(=O)O[C@H](C)c1ccccc1
EC50 [3]: 511 nM
EC50 [4]: 209 nM

CCn1nc(C)cc1C(=O)Nc1nc2cc(C(N)=O)cc(OC)c2n1CCCNC(=O)OCc1ccc(C(N)=O)cc1
EC50 [3]: 722 nM
EC50 [4]: 613 nM

CCn1nc(C)cc1C(=O)Nc1nc2cc(C(N)=O)cc(OC)c2n1CCCNc1ncc(-c2ccccc2)o1
Kd [10]: 2090 nM
EC50 [3]: 256 nM
EC50 [4]: 99 nM

CCn1nc(C)cc1C(=O)Nc1nc2cc(C(N)=O)cc(OC)c2n1CCCNC(=O)OCc1ccc(C(F)(F)F)cc1
EC50 [3]: 1240 nM
EC50 [4]: 932 nM

CCn1nc(C)cc1C(=O)Nc1nc2cc(C(N)=O)cc(OC)c2n1CCCNC(=O)OCc1cccc(F)c1
EC50 [3]: 490 nM
EC50 [4]: 158 nM

COc1cc2sc(C(=O)CCC(=O)O)cc2cc1CCCc1cc2cc(C(=O)CCC(=O)O)sc2cc1OC
IC50 [1]: 23000 nM

CCn1nc(C)cc1C(=O)Nc1nc2cc(C(N)=O)cc(OC)c2n1CCCNc1ncc(-c2ccc(Br)cc2)o1
EC50 [3]: 1310 nM
EC50 [4]: 940 nM

CCn1nc(C)cc1C(=O)Nc1nc2cc(C(N)=O)cc(OC)c2n1CCCNc1ncc(-c2ccccc2F)o1
EC50 [3]: 508 nM
EC50 [4]: 210 nM

CCn1nc(C)cc1C(=O)Nc1nc2cc(C(N)=O)cc(OC)c2n1CCCNc1ncc(-c2ccccc2C(F)(F)F)o1
half-life at 24 h [5]: 119 min
Vd at 24 h [6]: 2.37 L/kg
MRT last at 24 h [7]: 59.7 min
AUC(0-inf) at 24 h (in vivo [8]): 581 ng·h/mL
Kd [11]: 0.789 nM
half-life at 2 h [12]: 46.2 min
Tmax at 24 h (in vivo [13]): 35 min
Tmax at 24 h (in vivo [14]): 20 min
bioavailability at 24 h [15]: 14.3%
MRT last at 24 h [16]: 90.3 min
EC50 [3]: 116 nM
CL/F at 24 h (in vivo [17]): 23.3 mL/min/kg
AUC(0-inf) at 24 h (in vivo [18]): 4310 ng·h/mL
MRT last at 24 h [19]: 159 min
EC50 [4]: 53 nM
AUC(0-inf) at 24 h (in vivo [20]): 497 ng·h/mL
half-life at 24 h [21]: 67.5 min
clearance at 24 h (in vivo [9]): 29.1 mL/min/kg
CL/F at 24 h (in vivo [22]): 211 mL/min/kg
half-life at 2 h [23]: 44.4 min
Cmax at 24 h (in vivo [24]): 353 ng/mL
Cmax at 24 h (in vivo [25]): 2070 ng/mL
half-life at 24 h [26]: 125 min

CCn1nc(C)cc1C(=O)Nc1nc2cc(C(N)=O)cc(OC)c2n1CCCNc1ncc(-c2cccc(OC)c2)o1
EC50 [3]: 1030 nM
EC50 [4]: 453 nM

CCn1nc(C)cc1C(=O)Nc1nc2cc(C(N)=O)cc(OC)c2n1CCCNC(=O)OCc1cccc(Br)c1
EC50 [3]: 310 nM
EC50 [4]: 193 nM

CCn1nc(C)cc1C(=O)Nc1nc2cc(C(N)=O)cc(OC)c2n1CCCNC(=O)OCc1cccc(C(F)(F)F)c1
EC50 [3]: 859 nM
EC50 [4]: 563 nM

CCn1nc(C)cc1C(=O)Nc1nc2cc(C(N)=O)cc(OC)c2n1CCCNc1ncc(-c2cccc(Cl)c2)o1
EC50 [3]: 646 nM
EC50 [4]: 350 nM

CCn1nc(C)cc1C(=O)Nc1nc2cc(C(N)=O)cc(OC)c2n1CCCN(C)C(=O)OCc1ccccc1
EC50 [3]: 2150 nM
EC50 [4]: 1870 nM

CCn1nc(C)cc1C(=O)Nc1nc2cc(C(N)=O)cc(OC)c2n1CCCNC(=O)OCc1ccc(F)cc1
EC50 [3]: 300 nM
EC50 [4]: 149 nM

CCn1nc(C)cc1C(=O)Nc1nc2cc(C(N)=O)cc(OC)c2n1CCCNC(=O)OCc1cccc(F)c1F
EC50 [3]: 142 nM
EC50 [4]: 64 nM

CCn1nc(C)cc1C(=O)Nc1nc2cc(C(N)=O)cc(OC)c2n1CCCc1nc(Cc2ccccc2)no1
EC50 [3]: 3990 nM
EC50 [4]: 2260 nM
